The text below walks through data of patent US20220106304A1, “Transcription Factor BRN2 Inhibitory Compounds as Therapeutics and Methods for Their Use” (The University of British Columbia, priority 2018, published 2022).

The nature of series [1]: Liver microsome metabolic stability, MLM. Format: in vitro ADME. The settings on record: MLM (single value or second of two), 1 μM compound, 0.25 mg/mL protein; for Met Stab % (60 mins HLM/MLM): percent remaining at 60 min, 1 mM NADPH; for half-life at 1 µM: mouse, liver microsomes, pH 7.4, read-out: T1/2 in (mins HLM/MLM). How it is done:
Potassium phosphate buffer (Kphos) was prepared by adding 0.647 g potassium phosphate monobasic (KH2PO4) and 3.527 g potassium phosphate dibasic ([…]) to 400 mL of Milli-Q water. pH of the buffer was adjusted to 7.4 and volume was made up to 500 mL.
Microsomes (20 mg/mL) were diluted in KH2PO4 buffer to prepare a concentration of 0.357 mg/mL.
Stock solutions of BRN2 inhibitors were prepared in DMSO at a concentration of 1 mM
A stock solution of 3.33 mM NADPH (3.33×) was prepared by dissolving appropriate amount of NADPH in KH2PO4 buffer.
Total Incubation volume: 100 μL
Compound concentration: 1 μM
Protein Concentration: 0.25 mg/mL
An 1120 μL aliquot of Kphos buffer (50 mM, pH 7.4) containing liver microsomes (0.357 mg/mL) were added to individual 2 mL tubes (final concentration 0.25 mg/mL). Test compounds (1 mM) and positive controls were directly spiked into respective tubes to prepare a concentration of 1.428 μM (final concentration 1 μM). From the above mix, 70 μL was added to individual wells of 96 well reaction plates and pre-incubated in a 37° C. water bath for 5 min. All the reactions were initiated by adding 30 μL of 3.33 mM NADPH (final concentration 1 mM). Reactions without NADPH and buffer controls (minus NADPH) at 0 min and 60 min were also incubated to rule out non-NADPH metabolism or chemical instability in the incubation buffer. All reactions were terminated using 100 μL of ice-cold acetonitrile containing internal standard at 0, 5, 15, 30 and 60 min. The plates were centrifuged at 4000 RPM for 15 min and 100 μL aliquots were submitted for analysis by LC-MS/MS.
Samples were monitored for parent compounds disappearance in MRM mode using LC-MS/MS.
The percent remaining of test compounds and positive control in each sample was determined by considering peak area ratio in the 0 minute sample as 100%. The Half-life of compounds in microsomes is calculated by formula:
Half-life (t½) (min)=0.693/k, where k is gradient of line determined from plot of peak area ratio (compound peak area/internal standard peak area) against time.
In vitro intrinsic clearance (CL'int) (units in mL/min/kg) was calculated using the formula.
[formula] • For liver microsomes, scaling factor used was 45 mg microsomal protein per gm liver. • Indicates liver weight (gm) which varies species wise. For mice the liver weights are 90 gm.
Where data is not available “na” is inserted.
Background: Microsomes from liver hold many membrane-bound enzymes, among them those of drug oxidation.

Another series deals with T1, BRN2 (Homo sapiens, UniProt P20265).
T1 sequence (P20265 1-443): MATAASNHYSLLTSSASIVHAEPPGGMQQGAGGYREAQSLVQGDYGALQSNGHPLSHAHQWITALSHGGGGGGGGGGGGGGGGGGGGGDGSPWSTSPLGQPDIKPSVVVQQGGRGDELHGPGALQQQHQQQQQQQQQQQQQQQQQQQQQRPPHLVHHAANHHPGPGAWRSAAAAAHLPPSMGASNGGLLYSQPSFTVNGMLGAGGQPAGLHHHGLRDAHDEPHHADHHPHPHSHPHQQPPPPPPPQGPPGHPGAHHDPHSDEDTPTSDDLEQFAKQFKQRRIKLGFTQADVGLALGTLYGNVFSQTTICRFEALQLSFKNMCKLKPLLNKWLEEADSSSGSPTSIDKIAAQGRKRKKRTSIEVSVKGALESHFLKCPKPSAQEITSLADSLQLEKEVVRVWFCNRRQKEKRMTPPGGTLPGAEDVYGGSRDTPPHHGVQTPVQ
Nature of the series: cell-based. The settings on record: negative = activation; for inhibition at 10 µM: read-out: % BRN2 Inhibition (10 μM), 10 μM compound, 24 hours, 42D^ENZR cells stably expressing BRN2-luciferase reporter; for inhibition at 30 µM: read-out: % BRN2 Inhibition (30 μM), 30 μM compound, 24 hours, 42D^ENZR cells stably expressing BRN2-luciferase reporter. The source says:
Decreased expression of luciferase protein is validated via western blot to confirm downregulation and avoid false positive molecules that inhibit luciferase protein activity and not BRN2-drive luciferase expression. Molecules are prioritized by their inhibition potency to measure direct interaction with BRN2 in Step 2.
In TABLES 1 and 2, when a single value is mentioned in columns Met Stab % and T½, it refers to compound's stability in MLM and when two values are given they represent HLM/MLM. There is a distinction in TABLES 1 and 2 difference between “Active” and “Specific” or “Specificity”. Compounds are first tested to quantify inhibition of BRN2 transcriptional activity in a luciferase assay to determine “Activity” at […] and 30 μM concentrations. […] Where data is not available “na” is inserted. Where data has yet to be calculated the notation “nc” is used.
A general note: In a reporter assay the amount or activity of a reporter protein is the signal.

Take `Cn1c(-c2ccc(-c3cccc(C#N)c3)o2)nc2ccccc21` [VPC-18-63, 3-(5-(1-methyl-1H-benzo[d]imidazol-2-yl)furan-2-yl)benzonitrile]: in series [1], the “Met Stab % (60 mins HLM/MLM)” value came to 0%. Besides, on BRN2, the inhibition – broadly, the drop in the measured response relative to a control, in per cent – at 10 µM amounted to 72% and the inhibition at 30 µM was found to be 94%.
As to `FC(F)(F)c1ccc2cc(-c3csc(N4CCCC4)n3)oc2c1` [VPC-18-72, 2-(pyrrolidin-1-yl)-4-(6-(trifluoromethyl)benzofuran-2-yl)thiazole], in series [1], the “Met Stab % (60 mins HLM/MLM)” value worked out at 8% and the half-life at 1 µM stood at 18 min. In addition, on BRN2, the inhibition at 10 µM is 45.9% and the inhibition at 30 µM was 62.4%.
As for `FC(F)(F)c1ccc2cc(-c3csc(NC4CC4)n3)oc2c1` [VPC-18-73, N-cyclopropyl-4-(6-(trifluoromethyl)benzofuran-2-yl)thiazol-2-amine], in series [1], the “Met Stab % (60 mins HLM/MLM)” value stood at 2% and the half-life at 1 µM amounted to 11 min. In addition, on BRN2, the inhibition at 10 µM worked out at 78.8% and the inhibition at 30 µM came out at 95.7%.
With `Cc1c(-c2ccc(-c3ccccc3)o2)oc2ccccc12` [VPC-18-74, 3-methyl-2-(5-phenylfuran-2-yl)benzofuran], in series [1], the “Met Stab % (60 mins HLM/MLM)” value is listed as 2% and the half-life at 1 µM is 11 min. On BRN2, the inhibition at 10 µM stood at 96.7% and the inhibition at 30 µM was 99%.
For `c1coc(-c2nc(-c3cc4ncccc4o3)cs2)c1` [VPC-18-75, 2-(2-(furan-2-yl)thiazol-4-yl)furo[3,2-b]pyridine], the “Met Stab % (60 mins HLM/MLM)” value in series [1] is reported as 0%. Besides, at BRN2, the inhibition at 10 µM came to 71.9% and the inhibition at 30 µM came out at 91.9%.
On to `FC(F)(F)c1ccc2nc(-c3csc(C4=CCOCC4)n3)oc2c1` [VPC-18-77], for which, in series [1], the “Met Stab % (60 mins HLM/MLM)” value was 24% and the half-life at 1 µM was found to be 29 min. Moreover, on BRN2, the inhibition at 10 µM was determined as 11.3% and the inhibition at 30 µM worked out at 63.4%.
On the same counts, the results for `FC(F)(F)c1ccc2cc(-c3csc(N4CCOCC4)n3)oc2c1` [VPC-18-78, 4-(4-(6-(trifluoromethyl)benzofuran-2-yl)thiazol-2-yl)morpholine] are 25%, 30 min, 43.6% and 79.6%.
Turning to `N#Cc1ccc2cc(-c3csc(-c4ccco4)n3)oc2c1` [VPC-18-80], the “Met Stab % (60 mins HLM/MLM)” value in series [1] was found to be 0%. Moreover, on BRN2, the inhibition at 10 µM came out at 42% and the inhibition at 30 µM was determined as 44%.
For the molecule `Cn1c(-c2ccc(C3CCNCC3)o2)nc2ccc(C(F)(F)F)cc21` [VPC-18-82], in series [1], the “Met Stab % (60 mins HLM/MLM)” value is recorded as 100% and the half-life at 1 µM is above 60 min. Besides, on BRN2, the inhibition at 10 µM amounted to 11% and the inhibition at 30 µM came to 50%.
On the same counts, the results for `FC(F)(F)c1ccc2cc(-c3csc(NCC4CC4)n3)oc2c1` [VPC-18-86] are 5%, 13 min, 32% and 92%.
On the same counts, the results for `FC(F)(F)c1ccc2nc(-c3ccc(-c4ccccc4)o3)[nH]c2c1` [VPC-18-87] are 37%, 40 min, 85% and 87%.
On the same counts, the results for `N#Cc1c(-c2csc(-c3ccco3)n2)oc2ccccc12` [VPC-18-88, 2-(2-(furan-2-yl)thiazol-4-yl)benzofuran-3-carbonitrile] are 0%, 9 min, 76% and 96%.
For the molecule `FC(F)(F)c1ccc2cc(-c3csc(C4CCNCC4)n3)oc2c1` [VPC-18-89, 2-(piperidin-4-yl)-4-(6-(trifluoromethyl)benzofuran-2-yl)thiazole], in series [1], the “Met Stab % (60 mins HLM/MLM)” value was found to be 65% and the half-life at 1 µM was above 60 min. Also, on BRN2, the inhibition at 10 µM came to 65% and the inhibition at 30 µM amounted to 98%.
Regarding `Clc1ccc2cc(-c3csc(N4CC5CC4CO5)n3)oc2c1` (stereo not shown) [VPC-18-91, 5-(4-(6-chlorobenzofuran-2-yl)thiazol-2-yl)-2-oxa-5-azabicyclo[2.2.1]heptane], in series [1], the “Met Stab % (60 mins HLM/MLM)” value came out at 2% and the half-life at 1 µM was 11 min. On BRN2, the inhibition at 10 µM came to 70% and the inhibition at 30 µM worked out at 96%.
On the same counts, the results for `Clc1ccc2nc(-c3ccc(-c4ccccc4)o3)[nH]c2c1` [VPC-18-92, 6-chloro-2-(5-phenylfuran-2-yl)-1H-benzo[d]imidazole] are 0%, 6 min, 83% and 98.4%.
On the same counts, the results for `Fc1ccc(-c2nc(-c3nc4ccc(C(F)(F)F)cc4o3)cs2)o1` [VPC-18-93] are 26%, 34 min, -9.9% and 30.2%.
On the same counts, the results for `Clc1ccc2cc(-c3csc(-c4ccn[nH]4)n3)oc2c1` [VPC-18-96, 4-(6-chlorobenzofuran-2-yl)-2-(1H-pyrazol-5-yl)thiazole] are 35%, 45 min, 83.5% and 92.5%.
For `FC(F)(F)c1ccc2cc(-c3csc(-c4ncco4)n3)oc2c1` [VPC-18-98, 2-(4-(6-(trifluoromethyl)benzofuran-2-yl)thiazol-2-yl)oxazole], in series [1], the “Met Stab % (60 mins HLM/MLM)” value worked out at 53% and the half-life at 1 µM was above 60 min. Besides, on BRN2, the inhibition at 10 µM came to 84% and the inhibition at 30 µM stood at 86%.
On the same counts, the results for `Clc1ccc2cc(-c3csc(-c4ncco4)n3)oc2c1` [VPC-18-99] are 28%, 36 min, 29.3% and 39.2%.
On the same counts, the results for `Fc1sc(-c2ccco2)nc1-c1cc2ccc(C(F)(F)F)cc2o1` [VPC-18-100] are 1%, 10 min, 8.8% and 56.3%.
In the case of `Clc1ccc2cc(-c3cncc(-c4ccc[nH]4)n3)oc2c1` [VPC-18-130], in series [1], the “Met Stab % (60 mins HLM/MLM)” value turned out to be 1% and the half-life at 1 µM is 9 min.
Take `Clc1ccc2cc(-c3cccc(-c4ccc[nH]4)c3)oc2c1` [VPC-18-153]: in series [1], the “Met Stab % (60 mins HLM/MLM)” value is reported as 2% and the half-life at 1 µM stood at 11 min.
Turning to `Clc1ccc2cc(-c3csc(-c4nccs4)n3)oc2c1` [VPC-18-165], in series [1], the “Met Stab % (60 mins HLM/MLM)” value is listed as 6% and the half-life at 1 µM was 16 min.
On the same counts, the results for `Fc1c(Cl)ccc2cc(-c3csc(-c4ccc[nH]4)n3)oc12` [VPC-18-166] are 1% and 10 min.
